Consider 13 molecules from US12030878B2 (BRISTOL-MYERS SQUIBB COMPANY, priority 2017, dated 2024).

What all share (format): cell-based
In one assay the target is T1, human TLR8 (Homo sapiens, UniProt Q9NR97).
T1 construct: host or cells: HEK-Blue cells
T1 sequence (Q9NR97 27-1041): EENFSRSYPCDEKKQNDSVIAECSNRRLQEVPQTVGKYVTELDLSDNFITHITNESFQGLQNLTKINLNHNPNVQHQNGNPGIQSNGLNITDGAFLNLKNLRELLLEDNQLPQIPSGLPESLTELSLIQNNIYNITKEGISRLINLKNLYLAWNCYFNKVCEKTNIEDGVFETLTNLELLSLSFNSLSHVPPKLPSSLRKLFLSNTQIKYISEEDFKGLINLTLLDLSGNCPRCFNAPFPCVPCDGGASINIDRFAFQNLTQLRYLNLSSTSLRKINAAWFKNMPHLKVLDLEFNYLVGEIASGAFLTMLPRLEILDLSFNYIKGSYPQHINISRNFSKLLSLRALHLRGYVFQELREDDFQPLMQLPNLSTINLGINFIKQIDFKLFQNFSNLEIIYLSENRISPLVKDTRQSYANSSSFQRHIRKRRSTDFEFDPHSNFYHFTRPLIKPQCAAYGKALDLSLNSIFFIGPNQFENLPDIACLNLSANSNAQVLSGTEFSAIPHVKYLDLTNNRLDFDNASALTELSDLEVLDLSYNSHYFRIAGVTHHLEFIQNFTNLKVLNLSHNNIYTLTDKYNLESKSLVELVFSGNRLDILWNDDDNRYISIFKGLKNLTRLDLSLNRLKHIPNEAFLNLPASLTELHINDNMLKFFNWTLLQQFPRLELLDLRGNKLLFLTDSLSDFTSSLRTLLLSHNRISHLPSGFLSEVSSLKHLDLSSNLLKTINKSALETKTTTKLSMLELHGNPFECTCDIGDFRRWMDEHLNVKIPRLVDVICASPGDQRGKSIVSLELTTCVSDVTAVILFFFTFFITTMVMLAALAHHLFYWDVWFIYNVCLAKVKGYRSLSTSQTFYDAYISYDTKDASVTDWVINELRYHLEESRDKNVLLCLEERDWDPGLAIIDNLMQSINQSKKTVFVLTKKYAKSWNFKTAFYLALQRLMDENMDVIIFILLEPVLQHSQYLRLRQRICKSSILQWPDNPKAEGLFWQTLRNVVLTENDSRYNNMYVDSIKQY
As to the kind of experiment: TLR8 inhibition reporter assay (HEK-Blue SEAP). The following applies: HEK-Blue cells overexpressing human TLR8, stimulated with R848 15.9 μM, 22 hour incubation. The method, boiled down: (§1)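 SEAP read-out via HEK-Blue Detection medium after 22 h at 37 °C; percent inhibition relative to agonist-plus-DMSO and known-inhibitor wells. Agonists: TLR7 gardiquimod 7.5 μM, TLR8 R848 15.9 μM, TLR9 ODN2006 5 nM. Dose range 0.05 nM–50 μM, 30 min compound pre-treatment at RT.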
A general note: A reporter such as luciferase makes a cellular process visible.

Another assay deals with T2, human TLR9 (Homo sapiens, UniProt Q9NR96).
T2 construct: host or cells: HEK-Blue cells
T2 sequence (Q9NR96 26-1032): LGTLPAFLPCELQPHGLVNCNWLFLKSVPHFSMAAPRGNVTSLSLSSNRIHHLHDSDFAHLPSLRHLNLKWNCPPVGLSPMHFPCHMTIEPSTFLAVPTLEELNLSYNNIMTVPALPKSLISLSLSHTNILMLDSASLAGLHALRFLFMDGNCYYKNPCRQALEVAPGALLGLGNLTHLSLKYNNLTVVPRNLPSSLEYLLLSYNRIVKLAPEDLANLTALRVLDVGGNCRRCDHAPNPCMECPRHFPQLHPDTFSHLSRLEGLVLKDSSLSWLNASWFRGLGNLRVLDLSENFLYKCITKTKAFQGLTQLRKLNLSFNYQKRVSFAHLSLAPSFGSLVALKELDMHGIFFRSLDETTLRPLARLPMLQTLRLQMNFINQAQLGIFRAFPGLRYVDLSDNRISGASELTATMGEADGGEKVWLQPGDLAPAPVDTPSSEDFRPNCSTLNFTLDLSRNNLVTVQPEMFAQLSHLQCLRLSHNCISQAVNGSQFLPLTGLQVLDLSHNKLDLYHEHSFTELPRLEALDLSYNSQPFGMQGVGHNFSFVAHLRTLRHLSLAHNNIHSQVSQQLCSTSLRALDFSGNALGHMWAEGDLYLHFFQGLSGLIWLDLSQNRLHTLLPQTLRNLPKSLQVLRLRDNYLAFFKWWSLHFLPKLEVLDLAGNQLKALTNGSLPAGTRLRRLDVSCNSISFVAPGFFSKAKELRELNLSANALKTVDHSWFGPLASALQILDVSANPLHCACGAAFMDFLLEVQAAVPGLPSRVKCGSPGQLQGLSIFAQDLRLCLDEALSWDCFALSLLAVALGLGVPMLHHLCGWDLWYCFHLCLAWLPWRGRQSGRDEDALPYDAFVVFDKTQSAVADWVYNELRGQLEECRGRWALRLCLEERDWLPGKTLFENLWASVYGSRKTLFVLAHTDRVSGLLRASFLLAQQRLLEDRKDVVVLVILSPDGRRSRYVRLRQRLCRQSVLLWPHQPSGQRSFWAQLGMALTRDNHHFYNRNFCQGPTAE
As to the kind of experiment: TLR9 inhibition reporter assay (HEK-Blue SEAP). The following applies: HEK-Blue cells overexpressing human TLR9, stimulated with ODN2006 5 nM, 22 hour incubation. The method, boiled down: as §1

In a further assay the target is T3, human TLR7 (Homo sapiens, UniProt Q9NYK1).
T3 construct: host or cells: HEK-Blue cells
T3 sequence (Q9NYK1 27-1049): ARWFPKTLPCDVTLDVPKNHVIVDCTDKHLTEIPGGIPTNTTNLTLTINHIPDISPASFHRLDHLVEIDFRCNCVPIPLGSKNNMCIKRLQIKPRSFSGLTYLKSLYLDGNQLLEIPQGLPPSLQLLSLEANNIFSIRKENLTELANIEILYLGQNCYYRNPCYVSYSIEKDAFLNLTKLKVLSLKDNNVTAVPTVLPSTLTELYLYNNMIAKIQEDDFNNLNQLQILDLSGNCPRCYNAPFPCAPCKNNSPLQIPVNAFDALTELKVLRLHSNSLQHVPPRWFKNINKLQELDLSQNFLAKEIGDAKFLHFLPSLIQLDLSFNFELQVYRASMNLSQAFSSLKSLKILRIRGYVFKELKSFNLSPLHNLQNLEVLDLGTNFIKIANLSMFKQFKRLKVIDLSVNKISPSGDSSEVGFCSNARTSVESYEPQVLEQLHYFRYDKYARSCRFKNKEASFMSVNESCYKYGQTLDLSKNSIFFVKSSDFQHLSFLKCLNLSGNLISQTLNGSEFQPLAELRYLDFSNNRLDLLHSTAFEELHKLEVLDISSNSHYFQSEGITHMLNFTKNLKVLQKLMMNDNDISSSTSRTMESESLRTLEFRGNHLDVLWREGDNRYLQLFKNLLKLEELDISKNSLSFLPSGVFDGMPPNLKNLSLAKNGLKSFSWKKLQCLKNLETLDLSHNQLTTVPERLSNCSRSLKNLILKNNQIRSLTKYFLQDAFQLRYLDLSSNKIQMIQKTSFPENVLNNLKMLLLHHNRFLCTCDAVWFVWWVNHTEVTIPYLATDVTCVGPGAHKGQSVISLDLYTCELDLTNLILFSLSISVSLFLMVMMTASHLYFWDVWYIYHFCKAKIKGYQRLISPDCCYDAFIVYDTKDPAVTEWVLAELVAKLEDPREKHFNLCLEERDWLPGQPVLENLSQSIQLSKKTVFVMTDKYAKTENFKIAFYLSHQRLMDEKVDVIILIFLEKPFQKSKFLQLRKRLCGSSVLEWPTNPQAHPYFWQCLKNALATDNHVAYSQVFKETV
As to the kind of experiment: TLR7 inhibition reporter assay (HEK-Blue SEAP). As to conditions: HEK-Blue cells overexpressing human TLR7, stimulated with gardiquimod 7.5 μM, 22 hour incubation. The gist of the method: as §1

As for `COc1cc(-c2[nH]c3ccc(OC4CCN(C(C)C)CC4)cc3c2C(C)C)cn2ncnc12` [Example 66, 6-(3-isopropyl-5-((1-isopropylpiperidin-4-yl)oxy)-1H-indol-2-yl)-8-methoxy-[1,2,4]triazolo[1,5-a]pyridine], the IC50 is 0.7 nM on human TLR8, 1150 nM against human TLR9 and 0.8 nM against human TLR7.

As to `CCCN1CCC(Oc2ccc3[nH]c(-c4cc(OC)c5ncnn5c4)c(C(C)C)c3c2)CC1` [Example 67, 6-(3-isopropyl-5-((1-propylpiperidin-4-yl)oxy)-1H-indol-2-yl)-8-methoxy-[1,2,4]triazolo[1,5-a]pyridine], the half-maximal inhibitory concentration (IC50) at human TLR8 was determined as 0.2 nM; on human TLR9 it was 1060 nM; against human TLR7, 0.2 nM.

Consider `Cc1cc(-c2[nH]c3ccc(OC4CCN(C5CCOCC5)CC4)cc3c2C(C)C)cn2ncnc12` [Example 68, 6-(3-isopropyl-5-((1-(tetrahydro-2H-pyran-4-yl)piperidin-4-yl)oxy)-1H-indol-2-yl)-8-methyl-[1,2,4]triazolo[1,5-a]pyridine], for which the IC50 is 1.7 nM against human TLR8, 2290 nM against human TLR9 and 5.9 nM against human TLR7.

Take `Cc1cc(-c2[nH]c3ccc(OC4CCN(CC(C)O)CC4)cc3c2C(C)C)cc(C)n1` (stereo not drawn) [Example 69, 1-(4-((2-(2,6-dimethylpyridin-4-yl)-3-isopropyl-1H-indol-5-yl)oxy)piperidin-1-yl) propan-2-ol]: the IC50 against human TLR8 is 2.4 nM; against human TLR9 it was 733 nM; against human TLR7, 5.6 nM.

Take `Cc1cc(-c2[nH]c3ccc(OC4CCN(CCO)CC4)cc3c2C(C)C)cc(C)n1` [Example 70, 2-(4-((2-(2,6-dimethylpyridin-4-yl)-3-isopropyl-1H-indol-5-yl)oxy)piperidin-1-yl) ethan-1-ol]: the IC50 stood at 1.5 nM against human TLR8, 1040 nM at human TLR9 and 9.6 nM on human TLR7.

For `Cc1cc(-c2[nH]c3ccc(OCC4CCN(CCO)CC4)cc3c2C(C)C)cc(C)n1` [Example 71, 2-(4-(((2-(2,6-dimethylpyridin-4-yl)-3-isopropyl-H-indol-5-yl)oxy)methyl)piperidin-1-yl)ethan-1-ol], the results for the IC50 at human TLR8, on human TLR9 and against human TLR7 were 2.5 nM, 359 nM and 3.8 nM, respectively.

For the molecule `Cc1cc(-c2[nH]c3ccc(OC4CCN(CCCO)CC4)cc3c2C(C)C)cc(C)n1` [Example 72, 3-(4-((2-(2,6-dimethylpyridin-4-yl)-3-isopropyl-1H-indol-5-yl)oxy)piperidin-1-yl)propan-1-ol], the values for the IC50 on human TLR8, against human TLR9 and against human TLR7 were 1.3 nM, 528 nM and 3.8 nM, respectively.

On to `COCCN1CCC(COc2ccc3[nH]c(-c4cc(C)nc(C)c4)c(C(C)C)c3c2)CC1` [Example 73, 2-(2,6-dimethylpyridin-4-yl)-3-isopropyl-5-((1-(2-methoxyethyl)piperidin-4-yl)methoxy)-1H-indole], for which the figures for the IC50 against human TLR8, at human TLR9 and on human TLR7 were 5.2 nM, 633 nM and 13.4 nM, respectively.

In the case of `COCCN1CCC(COc2ccc3[nH]c(-c4cc(C)c(=O)n(C)c4)c(C(C)C)c3c2)CC1` [Example 74, 5-(3-isopropyl-5-((1-(2-methoxyethyl)piperidin-4-yl)methoxy)-1H-indol-2-yl)-1,3-dimethylpyridin-2(1H)-one], the IC50 against human TLR8 was 3.9 nM; against human TLR9, 29200 nM; against human TLR7 it was 20.7 nM.

As to `COCCN1CCC(Oc2ccc3[nH]c(-c4cc(C)nc(C)c4)c(C(C)C)c3c2)CC1` [Example 75, 2-(2,6-dimethylpyridin-4-yl)-3-isopropyl-5-((1-(2-methoxyethyl)piperidin-4-yl)oxy)-1H-indole], the IC50 is 1.5 nM on human TLR8, 663 nM at human TLR9 and 10.5 nM on human TLR7.

On to `Cc1cc(-c2[nH]c3ccc(OC4CCN(CC(C)C)CC4)cc3c2C(C)C)cn(C)c1=O` [Example 76, 5-(5-((1-isobutylpiperidin-4-yl)oxy)-3-isopropyl-1H-indol-2-yl)-1,3-dimethylpyridin-2(1H)-one], for which the values for the IC50 against human TLR8, at human TLR9 and on human TLR7 were 0.8 nM, 5570 nM and 2.8 nM, respectively.

With `Cc1cc(-c2[nH]c3ccc(OC4CCN(CC(C)C)CC4)cc3c2C(C)C)cn2ncnc12` [Example 77, 6-(5-((1-isobutylpiperidin-4-yl)oxy)-3-isopropyl-1H-indol-2-yl)-8-methyl-[1,2,4]triazolo[1,5-a]pyridine], the results for the IC50 at human TLR8, on human TLR9 and at human TLR7 were 1.4 nM, 2830 nM and 2.9 nM, respectively.

Regarding `Cc1cc(-c2[nH]c3ccc(OC4CCN(CCCC(F)(F)F)CC4)cc3c2C(C)C)cn(C)c1=O` [Example 78, 5-(3-isopropyl-5-((1-(4,4,4-trifluorobutyl)piperidin-4-yl)oxy)-1H-indol-2-yl)-1,3-dimethylpyridin-2(1H)-one], the IC50 against human TLR8 worked out at 1.1 nM; against human TLR9, 6310 nM; at human TLR7, 10.9 nM.

By IC50 is commonly meant the point on the concentration scale where inhibition reaches its midpoint.
